Our source for the AC1.4 values is patent US11780826B2 (Amgen Inc., priority 2017, dated 2023).

The assay concerns Bovine cardiac myofibrils. Briefly: In vitro model of dose-dependent myofibril ATPase modulation (AC1.4, pyruvate kinase/lactate dehydrogenase-coupled ATPase assay at pCa25). It is filed as biochemical. The settings on record: concentration at which ATPase activity was 1.4-fold higher than the bottom of the dose curve, mean of a minimum of two independent tests. A digest of the protocol: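 Compound dilutions were premixed with myofibrils, coupling enzymes, EGTA and CaCl2, then the reaction was started with an equal volume carrying ATP (final 1 mM), NADH and PEP. ATP turnover was followed at 340 nm, and dose responses were fit to a four-parameter equation.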
Molecule `O=C(N[C@@H](c1cc(F)c(Cl)cc1F)C1COC1)[C@H]1C[C@@H](O)CN1C(=O)c1ccnc(C(F)F)c1` [Example 501, (4R)-N-((R)-(4-chloro-2,5-difluorophenyl)(3-oxetanyl)methyl)-1-((2-(difluoromethyl)-4-pyridinyl)carbonyl)-4-hydroxy-D-prolinamide] returned an AC1.4 of 2.3495 µM.

`CS(=O)(=O)c1cccc(C(=O)N2CCC[C@@H]2C(=O)N[C@@H](c2ccc(C(F)(F)F)cc2F)C2COC2)c1` [Example 232, N-((R)-(2-fluoro-4-(trifluoromethyl)phenyl)(3-oxetanyl)methyl)-1-(3-(methylsulfonyl)benzoyl)-D-prolinamide] had an AC1.4 of 0.5201 µM.

`CS(=O)(=O)c1cccc(C(=O)N2CCSCC2C(=O)N[C@@H](c2ccc(C(F)(F)F)cc2F)C2CC2)c1` (stereo partly drawn) [Example 552, N-((R)-cyclopropyl(2-fluoro-4-(trifluoromethyl)phenyl)methyl)-4-(3-(methylsulfonyl)benzoyl)thiomorpholine-3-carboxamide] registered an AC1.4 of 2.854 µM.

The molecule `N#CC1CN(S(=O)(=O)N2CCC[C@H](C(=O)N3CCC[C@@H]3C(=O)NCc3cc(Cl)cc(C(F)(F)F)c3)C2)C1` [Example 532, N-(3-chloro-5-(trifluoromethyl)benzyl)-1-(((3S)-1-((3-cyano-1-azetidinyl)sulfonyl)-3-piperidinyl)carbonyl)-D-prolinamide] came in with an AC1.4 of 2.6285 µM.

For the molecule `CS(=O)(=O)c1ccnc(C(=O)N2[C@@H](C(=O)N[C@@H](c3ccc(C(F)(F)F)cc3F)C3CC3)C[C@H]3C[C@H]32)c1` [Example 444, (1R,3R,5R)-N-((R)-cyclopropyl(2-fluoro-4-(trifluoromethyl)phenyl)methyl)-2-(4-(methylsulfonyl)picolinoyl)-2-azabicyclo[3.1.0]hexane-3-carboxamide], the AC1.4 was found to be 1.547 µM.

`N#CC1CN(S(=O)(=O)c2cccc(C(=O)N3CCC[C@@H]3C(=O)NCc3ccc(CF)cc3)c2)C1` [Example 157, 1-((3-((3-cyano-1-azetidinyl)sulfonyl)phenyl)carbonyl)-N-(4-(fluoromethyl)benzyl)-D-prolinamide] yielded an AC1.4 of 0.2727 µM.

As for `O=C(N[C@@H](c1ccc(C(F)(F)F)cc1F)C1COC1)[C@H]1C[C@H]2C[C@H]2N1C(=O)c1cccc(C(F)(F)F)n1` [Example 789, (1R,3R,5R)-N-((R)-(2-fluoro-4-(trifluoromethyl)phenyl)(3-oxetanyl)methyl)-2-((6-(trifluoromethyl)-2-pyridinyl)carbonyl)-2-azabicyclo[3.1.0]hexane-3-carboxamide], the AC1.4 stood at 8.9635 µM.

For the molecule `COc1cc(F)cc(CNC(=O)[C@H]2CCCN2C(=O)[C@H]2CCCN(S(=O)(=O)N3CC(C#N)C3)C2)c1` [Example 681, 1-(((3S)-1-((3-cyano-1-azetidinyl)sulfonyl)-3-piperidinyl)carbonyl)-N-(3-fluoro-5-methoxybenzyl)-D-prolinamide], the AC1.4 was 5.0425 µM.

With `CS(=O)(=O)c1cncc(C(=O)N2CC(F)(F)C2C(=O)N[C@@H](c2cc(F)c(C(F)(F)F)cc2F)C2CC2)c1` (stereo partly drawn) [Example 767, N-((R)-cyclopropyl(2,5-difluoro-4-(trifluoromethyl)phenyl)methyl)-3,3-difluoro-1-(5-(methylsulfonyl)nicotinoyl)azetidine-2-carboxamide], the AC1.4 came to 8.015 µM.

With `N#CC1CN(S(=O)(=O)N2CCC[C@H](C(=O)N3CCC[C@@H]3C(=O)NCc3cccc(Cl)c3Cl)C2)C1` [Example 206, 1-(((3S)-1-((3-cyano-1-azetidinyl)sulfonyl)-3-piperidinyl)carbonyl)-N-(2,3-dichlorobenzyl)-D-prolinamide], the AC1.4 was found to be 0.4338 µM.

For the molecule `C[C@@H](NC(=O)[C@H]1CCCN1C(=O)[C@H]1CCCN(S(=O)(=O)N2CC(C#N)C2)C1)c1ccc(C(F)(F)F)cc1F` [Example 29, 1-(((3S)-1-((3-cyano-1-azetidinyl)sulfonyl)-3-piperidinyl)carbonyl)-N-((1R)-1-(2-fluoro-4-(trifluoromethyl)phenyl)ethyl)-D-prolinamide], the AC1.4 stood at 0.03155 µM.

For `COc1ccc(S(C)(=O)=O)cc1C(=O)N1[C@@H](C(=O)N[C@@H](c2ccc(C(F)(F)F)cc2F)C2CC2)C[C@H]2C[C@H]21` [Example 612, (1R,3R,5R)-N-((R)-cyclopropyl(2-fluoro-4-(trifluoromethyl)phenyl)methyl)-2-(2-methoxy-5-(methylsulfonyl)benzoyl)-2-azabicyclo[3.1.0]hexane-3-carboxamide], the AC1.4 worked out at 3.527 µM.

The molecule `CS(=O)(=O)c1cc(C(=O)N2CCC[C@@H]2C(=O)NC(c2ccc(C(F)(F)F)cc2F)C2CC2)ccn1` (stereo partly drawn) [Example 761, (2R)-N-(cyclopropyl(2-fluoro-4-(trifluoromethyl)phenyl)methyl)-1-(2-(methylsulfonyl)isonicotinoyl)pyrrolidine-2-carboxamide] displayed an AC1.4 of 7.696 µM.

`N#CC1CN(S(=O)(=O)N2CCC[C@H](C(=O)N3CCC[C@@H]3C(=O)N[C@@H](c3ccc(Cl)cc3)C(F)(F)F)C2)C1` [Example 308, N-((1S)-1-(4-chlorophenyl)-2,2,2-trifluoroethyl)-1-(((3S)-1-((3-cyano-1-azetidinyl)sulfonyl)-3-piperidinyl)carbonyl)-D-prolinamide] had an AC1.4 of 0.8085 µM.

The molecule `N#CC1(c2cccc(C(=O)N3[C@@H](C(=O)N[C@@H](c4ccc(C(F)(F)F)cc4F)C4COC4)C[C@H]4C[C@H]43)c2)CC1` [Example 456, (1R,3R,5R)-2-(3-(1-cyanocyclopropyl)benzoyl)-N-((R)-(2-fluoro-4-(trifluoromethyl)phenyl)(3-oxetanyl)methyl)-2-azabicyclo[3.1.0]hexane-3-carboxamide] showed an AC1.4 of 1.882 µM.

`O=C(N[C@@H](c1ccc(C(F)(F)F)cc1F)C1CC1)[C@H]1CCCN1C(=O)c1cccc(C2CCC2)c1` [Example 530, 1-(3-cyclobutylbenzoyl)-N-((R)-cyclopropyl(2-fluoro-4-(trifluoromethyl)phenyl)methyl)-D-prolinamide] displayed an AC1.4 of 2.614 µM.

The molecule `O=C(N[C@@H](c1cc(F)c(Cl)cc1F)C1CC1)[C@H]1C[C@H]2C[C@H]2N1C(=O)c1cc(C2CC2)ccn1` [Example 713, (1R,3R,5R)-N-((R)-(4-chloro-2,5-difluorophenyl)(cyclopropyl)methyl)-2-((4-cyclopropyl-2-pyridinyl)carbonyl)-2-azabicyclo[3.1.0]hexane-3-carboxamide] showed an AC1.4 of 6.039 µM.

Molecule `N#CC1CN(S(=O)(=O)c2cccc(C(=O)N3CCC[C@@H]3C(=O)NCc3ccc(C4CC4)cc3)c2)C1` [Example 283, 1-((3-((3-cyano-1-azetidinyl)sulfonyl)phenyl)carbonyl)-N-(4-cyclopropylbenzyl)-D-prolinamide] registered an AC1.4 of 0.7288 µM.

`N#Cc1cccc(C(=O)N2CCC[C@@H]2C(=O)N[C@@H](c2ccc(C(F)(F)F)cc2F)C2CC2)c1` [Example 701, 1-(3-cyanobenzoyl)-N-((R)-cyclopropyl(2-fluoro-4-(trifluoromethyl)phenyl)methyl)-D-prolinamide] had an AC1.4 of 5.643 µM.

With `C[C@H](C(=O)NCc1ccc(Cl)c(Cl)c1)N(C)C(=O)c1cccc(S(=O)(=O)N2CC(C#N)C2)c1` [Example 341, 3-((3-cyano-1-azetidinyl)sulfonyl)-N-((1R)-2-((3,4-dichlorobenzyl)amino)-1-methyl-2-oxoethyl)-N-methylbenzamide], the AC1.4 was 0.9606 µM.
